Three molecules from ChEMBL document CHEMBL1137153, “Synthesis of 7 alpha- and 7 beta-spermidinylcholesterol, squalamine analogues” (2004) can be followed below.

Format in all cases: functional
In one experiment the test system is Staphylococcus aureus. Kind of experiment: Minimal inhibitory concentration against Staphylococcus aureus (strain CIP 54127) after 48 hr of incubation was evaluated. The settings on record: CIP 54127, 48 h.
The subject of the next experiment is Escherichia coli. The experiment in a line: Minimal inhibitory concentration against Escherichia coli (strain 54127) after 48 hr of incubation was evaluated.
Another experiment has as its system Enterococcus hirae. The experiment in a line: Minimal inhibitory concentration against Enterococcus hirae (strain CIP 5855) after 48 hr of incubation was evaluated. The settings on record: CIP 5855, 48 h.
Experiment [1] concerns Candida albicans. Kind of experiment: Minimal inhibitory concentration against Candida albicans (strain CIP 1180-79) after 48 hr of incubation was evaluated. The conditions noted are these: CIP 1180-79, 48 h.
The next experiment relates to Saccharomyces cerevisiae. The experiment in a line: Minimal inhibitory concentration against Saccharomyces cerevisiae (strain ATC 28383) after 48 hr of incubation was evaluated.
The test system of experiment [2] is Candida albicans. Kind of experiment: Minimal inhibitory concentration against Candida albicans (strain CIP 1180-79) after 48 hr of incubation was evaluated; Range = 4 - 8 ug/mL. The conditions noted are these: CIP 1180-79, 48 h.

The structures appear in SMILES notation. Converted amounts (≈) assume the structure as drawn. Some results are limits rather than exact numbers.

Consider `CC(C)CCC[C@@H](C)[C@H]1CCC2C3C(CC[C@@]21C)[C@@]1(C)CC[C@H](O)CC1=C[C@H]3NCCCNCCCCN` (stereo partly drawn), for which the MIC in the experiment on Staphylococcus aureus worked out at 3.12 µg/mL (≈ 5.89 µM); with Escherichia coli, 6.25 µg/mL (≈ 11.8 µM); with Enterococcus hirae, 3.12 µg/mL (≈ 5.89 µM); against Candida albicans [1], 6.25 µg/mL (≈ 11.8 µM); with Saccharomyces cerevisiae, 3.12 µg/mL (≈ 5.89 µM).
As for `CC(C)CCC[C@@H](C)[C@H]1CCC2C3C(CC[C@@]21C)[C@@]1(C)CC[C@H](O)CC1=C[C@@H]3NCCCNCCCCN` (stereo partly drawn), the MIC stood at 6.25 µg/mL (≈ 11.8 µM) in the experiment on Staphylococcus aureus; 3.12 µg/mL (≈ 5.89 µM) in the experiment with Escherichia coli; 6.25 µg/mL (≈ 11.8 µM) with Enterococcus hirae; 3.12 µg/mL (≈ 5.89 µM) in the experiment with Candida albicans [1]; 3.12 µg/mL (≈ 5.89 µM) against Saccharomyces cerevisiae.
In the case of `CC(C)[C@@H](CC[C@@H](C)[C@H]1CC[C@H]2[C@@H]3[C@H](O)C[C@H]4C[C@@H](NCCCNCCCCN)CC[C@]4(C)[C@H]3CC[C@]12C)OS(=O)(=O)O` [SQUALAMINE], the MIC in the experiment on Staphylococcus aureus is 1.56 µg/mL (≈ 2.48 µM); against Escherichia coli it was greater than 100 µg/mL; against Candida albicans [2] it was 8 µg/mL (≈ 12.7 µM).

What is called MIC is the least concentration at which growth counts as inhibited.
